{"source": "paper PMC7737769", "about": "“Pharmacological inhibition of syntenin PDZ2 domain impairs breast cancer cell activities and exosome loading with syndecan and EpCAM cargo” (Journal of Extracellular Vesicles, 2020)", "key": {"[1]": {"test_system": "biotinylated‐GST", "assay": "HTRF control with biotinylated-GST (non-specific interference with FRET signal)", "description": "HTRF assays were performed in white 96Well Small VolumeHiBase Polystyrene Microplates (Greiner) with a total working volume of […], as described previously (Milhas et al., 2016). Briefly, compounds were firstly dispensed into the wells at 400 µM for the primary screen or with serial DMSO dilutions for IC50 measurement assays. Primary screening assays have been performed in monoplicate while IC50 measurements were performed in triplicates. All HTRF reagents were purchased from CisBio Bioassays and reconstituted according to the supplier protocols. The plates were spun for 3 min at 500 × g and then incubated at 4°C for 16 h. The HTRF signals were recorded on a POLAR star Omega plate reader (BMG Labtech) with an excitation filter at 337 nm and fluorescence wavelength measurement at 620 and 665 nm, an integration delay of 60 µs and an integration time of 400 µs. Results were analysed with a two‐wavelength signal ratio: [intensity (665 nm)/intensity (620 nm)] × 10^4. Percentage of inhibition was calculated using the following equation: % inhibition = [(compound signal)–(min signal)]/[(max signal)–(min signal)] × 100, where ‘max signal’ is the signal ratio with the compound vehicle alone (DMSO) and ‘min signal’ the signal ratio without protein B. For IC50 measurements, values were normalized and fitted with Prism (GraphPad software) using the following equation: Y = 100/(1+((X/ IC50)ˆHill slope)).\nThe search strategy for PDZ2 syntenin inhibitors was based on the PDZ targeted library developed from Enamine compound collection. The PDZ targeted library was developed to cover virtually all PDZ domains. Consequently, to create the syntenin PDZ2 focused library we used two independent paths: docking of the PDZ targeted library against structures of syntenin PDZ2 available in Protein Data Bank and a random selection from the PDZ targeted library. The docking has produced 21 virtual hits, which were added to 118 randomly selected compounds (10% of the pan PDZ library). The resultant set of 139 compounds, syntenin PDZ library was subjected to experimental validation. The primary screen was performed at 400µM using a previously validated Homogeneous Time Resolved Fluorescence (HTRF) assay (Milhas et al., 2016). HTRF is based on Fluorescence Resonance Energy Transfer (FRET) between two fluorescent reagents. In the present case, Anti‐GST‐Terbium antibody and streptavidin‐bound Dynamic2 were used as donor and acceptor respectively. Interactions between GST PDZ‐fusion proteins and biotinylated peptides containing PDZ binding motifs were challenged with the potential inhibitors. In parallel, control experiments were performed with a biotinylated‐GST to verify that compounds were not interfering with the FRET signal in a non‐specific manner. To identify inhibitors of syntenin PDZ interactions, we tested for the effect of the 139 compounds on syntenin‐SDC2 and syntenin‐Frizzled7 complexes (Figure 1a; Table S1). When the HTRF signal dropped below 0.9, inhibition was considered as effective. […] Noteworthy, these compounds had no effect on other PDZ complexes like GRASP55‐JAM‐B or GRASP55‐JAM‐C and Erbin‐Erbb2 or Erbin‐P0071 (Figure 1c)."}, "[2]": {"test_system": "MCF‐7 cells (exosomal markers)", "assay": "Western blot of exosomal fractions (exosome cargo)", "format": "cell-based", "details": "CAY10594 10 µM, 16 h", "description": "For comparative analyses, exosome‐enriched fractions were collected from equivalent amounts of culture medium, conditioned by equivalent amounts of cells. MCF‐7 cells were treated with indicated compounds or with DMSO 0.2% as control, in medium containing exosome‐depleted FCS (10%). After 16 h, cell media were collected and exosomes were isolated by three sequential centrifugation steps at 4 °C: 10 min at 500 × g, to remove cells; 30 min at 10,000 × g, to remove cell debris; and 1h30min at 100,000 × g, to pellet exosomes (exosome‐enriched fraction), followed by one wash with 1400 µl of PBS1X (100,000 × g, 1 h), to remove soluble serum and secreted proteins. Exosomal pellets were then re‐suspended in 100 µl of PBS1X. The lysates from corresponding cultures were cleared by centrifugation at 1500 rpm for 5 min and then resuspended in lysis buffer (TrisHCL pH 7.4 30 mM, NaCl 150 mM, 1% NP40 (IGEPAL), 1 µg/ml aprotinin, 1 µg/ml leupeptin). Although only little variations were observed from sample to sample, exosomal amounts loaded for the western blot were normalized according to the number of parent cells from where exosomes were secreted.\nThe proteins were heat‐denaturated in Laemmli sample buffer, fractionated in 12.5% or 15% gels by SDS–PAGE and electro‐transferred to nitrocellulose membrane. Membranes were stained with Ponceau red and immunoblotted with the indicated primary antibodies for: CD9 (1/5000), CD63 (1/5000), CD81 (1/5000) and ADAM10 (1/1000) antibodies provided by E. Rubinstein (Charrin et al., 2001) (Université Paris‐Sud UMRS_935, Villejuif); syntenin (Homemade (Kashyap et al., 2015); 1/3000), Tubulin (Sigma‐Aldrich; 1/10,000), ALIX (Homemade (Baietti et al., 2012); 1/500), HSP70 (Santa Cruz Biotechnology; 1/500), Flotillin‐1 (BD Biosciences; 1/1000), EGFR (Cell Signaling; 1/1000), EpCAM (Santa Cruz Biotechnology; 1/200), Fibronectin (BD Biosciences; 1/5000), Src (Cell signaling; 1/1000), TSP1 (Lab Vision; 1/100), SDC1 intracellular domain (Homemade (Baietti et al., 2012); 1/1000), SDC4 intracellular domain (Abnova; 1/2000), and HRP‐conjugated secondary antibodies (Mouse or Rabbit, Thermofisher scientific; 1/10,000). Signals were visualized using Amersham ECL Prime Western Blotting Detection Reagent (GE Healthcare)."}}, "data": [{"smiles": "CC(C)[C@H](NC(=O)CSc1ccc(Cl)cc1)C(=O)O", "note": "[Compound C58]", "values": [{"measurement": "GST-biot (signal ratio)", "setting": "[1]; 400µM compound, Figure 1c", "value": 0.92}, {"measurement": "effect on control (biotinylated‐GST) FRET signals", "setting": "[1]; HTRF primary screen, 400µM", "value": "no significant effect"}, {"measurement": "HTRF ASSAY GST-biot (HTRF signal ratio, control)", "setting": "[1]; primary screen, 400 µM compound, Table S1", "value": 1.01}]}, {"smiles": "CC(C)[C@H](NC(=O)CCSc1ccc(Cl)cc1)C(=O)O", "note": "[SyntOFF, (S)‐2‐(3‐(4‐chlorophenylthio)propanamido)‐3‐methylbutanoic acid]", "values": [{"measurement": "exosomal ADAM10 signal", "setting": "[2]; SyntOFF 100 µM", "value": "unaffected"}, {"measurement": "exosomal CD81", "setting": "[2]; SyntOFF 100 µM", "value": "that was not the case"}, {"measurement": "exosomal EGFR signal", "setting": "[2]; SyntOFF 100 µM", "value": "unaffected"}, {"measurement": "exosomal TSP1 signal", "setting": "[2]; SyntOFF 100 µM", "value": "unaffected"}, {"measurement": "exosomal fibronectin signal", "setting": "[2]; SyntOFF 100 µM", "value": "unaffected"}, {"measurement": "incorporation of EpCAM into exosomes", "setting": "[2]; SyntOFF 100 µM", "value": "markedly decrease"}, {"measurement": "incorporation of c‐Src into exosomes", "setting": "[2]; SyntOFF 100 µM", "value": "markedly decrease"}, {"measurement": "amount of exosomal ALIX", "setting": "[2]; cSyntOFF, C58, SyntOFF 100 µM", "value": "significantly decreased"}, {"measurement": "amount of exosomal SDC4 C‐terminal fragment (CTF)", "setting": "[2]; cSyntOFF, C58, SyntOFF 100 µM", "value": "significantly decreased"}, {"measurement": "amount of exosomal syntenin", "setting": "[2]; cSyntOFF, C58, SyntOFF 100 µM", "value": "significantly decreased"}]}]}
